# Experimental data as given in paper PMC2996262 (Journal of medicinal chemistry, 2010).
# Assays:
# wild-type viruses = experiment: Antiviral assays, range over wild-type viruses; assay type: cell-based, HIV-1; conditions: Human immunodeficiency virus 1, read-out: EC50 against wild-type viruses
# MDR viruses = experiment: Antiviral assays, range over MDR viruses; assay type: cell-based, HIV-1
structure (smiles),measurement,setting,value
CC(C)CN(C[C@@H](O)[C@H](Cc1ccccc1)NC(=O)[C@@H]1CN(c2ccccc2)C(=O)O1)S(=O)(=O)c1ccc2ncsc2c1 [15d],EC50,wild-type viruses,14 to 41 nM
same,loss of potency against MDR viruses,MDR viruses; relative to wild-type viruses,about 6 fold
CC(=O)c1cccc(N2C[C@@H](C(=O)N[C@@H](Cc3ccccc3)[C@H](O)CN(CC(C)C)S(=O)(=O)c3ccc4ncsc4c3)OC2=O)c1 [26d],EC50,wild-type viruses,4.2 to 10.1 nM
CC(C)CN(C[C@@H](O)[C@H](Cc1ccccc1)NC(=O)[C@@H]1CN(c2cccc(S(C)(=O)=O)c2)C(=O)O1)S(=O)(=O)c1ccc2ncsc2c1 [27d],EC50,wild-type viruses,3.5 to 5.7 nM
COC(=O)Nc1cccc(N2C[C@@H](C(=O)N[C@@H](Cc3ccccc3)[C@H](O)CN(CC(C)C)S(=O)(=O)c3ccc4ncsc4c3)OC2=O)c1 [31d],EC50,wild-type viruses,1.2 to 3 nM
same,"antiviral potency against the MDR HIV-1 variants, better than LPV",MDR viruses; compared with LPV,3 fold
